The NIST ThermoML archive (doi:10.1016/j.jct.2005.03.002)

Settings: 101.33 kPa, Liquid

CCOS(=O)(=O)[O-].CCn1cc[n+](C)c1 [1-ethyl-3-methylimidazolium ethyl sulfate]
Settings	mass density [kg/m3]
278.2 K	1243
288.2 K	1236.2
298.2 K	1229.6
308.2 K	1223
318.2 K	1216.2
328.2 K	1209.9
338.2 K	1203.7
